These compounds were tested on Tetrahymena pyriformis (assay: Toxicity in Tetrahymena pyriformis). Conditions: in vivo.
With `CCO` [ALCOHOL] the pGI50 was 1.9912. Compound `OCCCCl` [3-Chloropropanol] has a pGI50 of 1.1622. Work on `CC(C)O` [ISOPROPYL ALCOHOL] yielded a pGI50 of 1.8819. For `CC(C)CCO` [3-METHYLBUTANOL], the pGI50 was 1.0359. `CCCC(C)O` (stereo not given) [2-PENTANOL] showed a pGI50 of 1.1596. `CCCO` [PROPANOL] gave a pGI50 of 1.7464. For `CCC(C)O` (stereo not given) [BUTANOL], the pGI50 was 1.542. With `OCCCl` [2-CHLOROETHANOL] the pGI50 was 1.5343. Compound `CO` [METHYL ALCOHOL] has a pGI50 of 2.6656. Compound `CCCCO` [BUTYL ALCOHOL] has a pGI50 of 1.4306. With `CCC(O)CC` [3-PENTANOL] the pGI50 was 1.2437. `CC(O)CCl` (stereo not given) was tested, and the pGI50 was 1.2446. `CCC(C)(C)O` [AMYLENE HYDRATE] gave a pGI50 of 1.1729. With `CC(C)(C)O` [TERT-BUTANOL] the pGI50 was 1.7911. `CC(C)CO` [ISOBUTANOL] was tested, and the pGI50 was 1.3724.
